Measurements as given in US11098044B2, “Imidazopyridinyl compounds and use thereof for treatment of neurodegenerative disorders” (1ST Biotherapeutics, Inc., priority 2019, dated 2021).

Key:
Type in all cases: biochemical
LRRK2 G2019S = LRRK2 G2019S (Homo sapiens (Human), UniProt Q5S007, G2019S); test: LRRK2 G2019S Kinase Assay (Adapta); settings: 100 μM ATP, LRRKtide substrate; read-out: LRRK2_G2019S IC50
Method: (§1) The LRRK2 and LRRK2 G2019S kinase assays were performed using the Adapta™ technology in ThermoFisher Scientific. This experiment was carried out according to the supplier's protocol. Briefly, assay conditions were as follows. The mixture of substrate (LRRKtide) and each kinase was prepared in 50 mM Tris pH 8.5, 0.01% BRIJ-35, 10 mM MgCl2, 1 mM EGTA, 0.02% NaN3. Assays were performed in the presence of 70 μM ATP and 100 μM ATP (KmATP) in LRRK2 and LRRK2 G2019S, respectively. The reaction was progressed at room temperature for 1 hour. Upon completion of kinase reaction, 5 μL of Detection Mix was added and after 60 min incubation time, the emission ratio of 665/615 nm was calculated.

LRRK2 (WT) = LRRK2 (WT) (Homo sapiens (Human), UniProt Q5S007); test: LRRK2 Kinase Assay (Adapta); settings: 70 μM ATP, LRRKtide substrate
Method: as §1

[1] = target: c-Abl (His-tagged recombinant human ABL1) (Homo sapiens (Human), UniProt P00519); test: c-abl Kinase Assay (ADP-Glo); settings: ATP (25 μM), Abltide substrate
Method: ADP-Glo assay kit was purchased from Promega. Magnesium chloride (MgCl2), bovine serum albumin (BSA), ethylene glycol-bis(p-aminoethyl ether)-N,N,N′,N′-tetraacetic acid (EGTA), triton X-100, 1,4-dithiothreitol (DTT) and dimethyl sulfoxide (DMSO) were purchased from Sigma-Aldrich. HEPES buffer was purchased from Gibco. ABL1 kinase and Abltide were purchased from Signalchem.
c-Abl kinase activity was measured by Promega's ADP-Glo™ Assay. In this assay, His-tagged recombinant human ABL1 (0.25 ng/μl) is incubated with 5 μL of compounds (0.5% DMSO), 5 μL of Abltide (0.01 μg/μl) and 5 μL of ATP (25 μM) in buffer (50 mM HEPES, 7.5; 10 mM MgCl2; 1 mM EGTA; 0.05% BSA; 0.01% Triton X-100; 2 mM DTT). The assay was started by incubating the reaction mixture in a 96-well plate at 30° C. for 30-min. After the incubation, 25 μL ADP-Glo reagent was added and the reaction was incubated at room temperature for 40-min to stop the reaction and degrade residual ATP. The ADP product was then converted to ATP by adding 50 μL per well of detection reagent. Luminescence was detected after 30-min room temperature incubation with the Molecular device I3X plate reader. The IC50 values were calculated from a series of percent inhibition values determined at a range of inhibitor concentration using software routines as implemented in the GraphPad Prism 7 software and Sigma Plot 13.0.

LRRK2 G2019S, sequence (Q5S007 whole entry G2019S): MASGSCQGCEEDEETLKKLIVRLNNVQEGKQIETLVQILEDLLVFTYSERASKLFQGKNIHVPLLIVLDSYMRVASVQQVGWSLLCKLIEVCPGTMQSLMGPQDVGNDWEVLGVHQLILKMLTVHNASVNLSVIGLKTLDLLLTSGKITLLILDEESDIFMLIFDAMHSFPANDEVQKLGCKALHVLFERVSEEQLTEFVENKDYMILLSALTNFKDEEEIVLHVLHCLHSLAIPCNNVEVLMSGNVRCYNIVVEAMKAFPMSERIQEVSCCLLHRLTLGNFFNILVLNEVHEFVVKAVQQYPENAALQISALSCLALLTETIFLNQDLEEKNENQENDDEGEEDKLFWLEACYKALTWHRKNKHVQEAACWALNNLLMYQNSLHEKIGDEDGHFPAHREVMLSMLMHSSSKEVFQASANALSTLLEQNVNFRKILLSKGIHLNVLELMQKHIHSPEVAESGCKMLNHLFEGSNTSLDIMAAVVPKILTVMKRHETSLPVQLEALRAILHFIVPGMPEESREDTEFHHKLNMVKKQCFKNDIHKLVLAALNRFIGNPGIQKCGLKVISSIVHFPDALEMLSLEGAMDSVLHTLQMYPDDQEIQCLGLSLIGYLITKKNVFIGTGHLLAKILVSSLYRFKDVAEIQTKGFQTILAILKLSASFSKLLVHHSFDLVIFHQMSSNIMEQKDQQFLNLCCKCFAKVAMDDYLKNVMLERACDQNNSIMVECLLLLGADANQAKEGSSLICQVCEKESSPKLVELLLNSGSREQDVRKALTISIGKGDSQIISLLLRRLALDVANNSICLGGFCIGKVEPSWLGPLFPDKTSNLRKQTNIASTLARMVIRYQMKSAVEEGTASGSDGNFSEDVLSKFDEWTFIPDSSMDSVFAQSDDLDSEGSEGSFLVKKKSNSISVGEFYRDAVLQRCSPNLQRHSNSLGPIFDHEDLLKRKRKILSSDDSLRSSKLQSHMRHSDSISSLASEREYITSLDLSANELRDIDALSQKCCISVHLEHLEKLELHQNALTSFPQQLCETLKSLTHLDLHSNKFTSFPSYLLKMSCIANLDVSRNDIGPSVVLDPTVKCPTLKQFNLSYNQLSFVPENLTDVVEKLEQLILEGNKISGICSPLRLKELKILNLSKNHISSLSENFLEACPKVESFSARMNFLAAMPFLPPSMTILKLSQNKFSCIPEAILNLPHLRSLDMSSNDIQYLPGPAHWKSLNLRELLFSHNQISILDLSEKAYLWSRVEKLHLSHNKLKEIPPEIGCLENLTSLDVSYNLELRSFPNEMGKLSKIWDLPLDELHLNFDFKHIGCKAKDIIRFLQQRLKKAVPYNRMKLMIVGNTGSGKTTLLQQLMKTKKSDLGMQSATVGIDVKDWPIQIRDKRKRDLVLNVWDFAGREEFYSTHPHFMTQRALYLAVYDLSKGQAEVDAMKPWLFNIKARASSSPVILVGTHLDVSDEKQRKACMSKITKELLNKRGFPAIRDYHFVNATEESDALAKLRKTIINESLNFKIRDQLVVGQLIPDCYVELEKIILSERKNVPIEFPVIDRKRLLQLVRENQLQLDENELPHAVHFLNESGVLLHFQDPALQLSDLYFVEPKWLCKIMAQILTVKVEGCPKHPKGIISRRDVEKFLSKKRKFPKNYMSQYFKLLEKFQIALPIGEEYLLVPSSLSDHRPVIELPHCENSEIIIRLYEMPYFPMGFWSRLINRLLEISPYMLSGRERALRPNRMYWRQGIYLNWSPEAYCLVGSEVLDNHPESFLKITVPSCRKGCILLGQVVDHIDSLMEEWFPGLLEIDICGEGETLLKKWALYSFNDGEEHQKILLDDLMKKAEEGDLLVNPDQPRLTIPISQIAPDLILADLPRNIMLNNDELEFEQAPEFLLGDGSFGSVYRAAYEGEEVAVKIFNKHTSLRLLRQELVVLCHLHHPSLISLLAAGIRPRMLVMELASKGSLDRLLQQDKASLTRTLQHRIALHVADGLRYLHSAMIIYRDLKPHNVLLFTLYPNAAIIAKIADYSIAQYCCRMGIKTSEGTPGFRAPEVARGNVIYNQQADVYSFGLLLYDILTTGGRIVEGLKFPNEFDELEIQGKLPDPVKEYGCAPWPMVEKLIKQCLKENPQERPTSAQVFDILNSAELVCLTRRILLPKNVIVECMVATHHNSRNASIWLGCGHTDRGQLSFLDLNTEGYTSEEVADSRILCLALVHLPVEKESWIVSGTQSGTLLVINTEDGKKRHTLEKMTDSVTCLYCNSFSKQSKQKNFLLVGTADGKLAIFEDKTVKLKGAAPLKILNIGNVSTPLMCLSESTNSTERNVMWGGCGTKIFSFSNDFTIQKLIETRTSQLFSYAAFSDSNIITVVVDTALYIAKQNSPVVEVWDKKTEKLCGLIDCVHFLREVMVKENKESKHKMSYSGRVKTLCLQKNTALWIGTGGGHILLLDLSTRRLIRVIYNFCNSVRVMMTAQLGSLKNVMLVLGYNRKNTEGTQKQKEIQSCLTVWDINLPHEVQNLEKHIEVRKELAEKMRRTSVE
LRRK2 (WT), sequence (Q5S007 whole entry): as the sequence (Q5S007 whole entry G2019S) above, with S2019G counted along it
c-Abl (His-tagged recombinant human ABL1), sequence (P00519 whole entry): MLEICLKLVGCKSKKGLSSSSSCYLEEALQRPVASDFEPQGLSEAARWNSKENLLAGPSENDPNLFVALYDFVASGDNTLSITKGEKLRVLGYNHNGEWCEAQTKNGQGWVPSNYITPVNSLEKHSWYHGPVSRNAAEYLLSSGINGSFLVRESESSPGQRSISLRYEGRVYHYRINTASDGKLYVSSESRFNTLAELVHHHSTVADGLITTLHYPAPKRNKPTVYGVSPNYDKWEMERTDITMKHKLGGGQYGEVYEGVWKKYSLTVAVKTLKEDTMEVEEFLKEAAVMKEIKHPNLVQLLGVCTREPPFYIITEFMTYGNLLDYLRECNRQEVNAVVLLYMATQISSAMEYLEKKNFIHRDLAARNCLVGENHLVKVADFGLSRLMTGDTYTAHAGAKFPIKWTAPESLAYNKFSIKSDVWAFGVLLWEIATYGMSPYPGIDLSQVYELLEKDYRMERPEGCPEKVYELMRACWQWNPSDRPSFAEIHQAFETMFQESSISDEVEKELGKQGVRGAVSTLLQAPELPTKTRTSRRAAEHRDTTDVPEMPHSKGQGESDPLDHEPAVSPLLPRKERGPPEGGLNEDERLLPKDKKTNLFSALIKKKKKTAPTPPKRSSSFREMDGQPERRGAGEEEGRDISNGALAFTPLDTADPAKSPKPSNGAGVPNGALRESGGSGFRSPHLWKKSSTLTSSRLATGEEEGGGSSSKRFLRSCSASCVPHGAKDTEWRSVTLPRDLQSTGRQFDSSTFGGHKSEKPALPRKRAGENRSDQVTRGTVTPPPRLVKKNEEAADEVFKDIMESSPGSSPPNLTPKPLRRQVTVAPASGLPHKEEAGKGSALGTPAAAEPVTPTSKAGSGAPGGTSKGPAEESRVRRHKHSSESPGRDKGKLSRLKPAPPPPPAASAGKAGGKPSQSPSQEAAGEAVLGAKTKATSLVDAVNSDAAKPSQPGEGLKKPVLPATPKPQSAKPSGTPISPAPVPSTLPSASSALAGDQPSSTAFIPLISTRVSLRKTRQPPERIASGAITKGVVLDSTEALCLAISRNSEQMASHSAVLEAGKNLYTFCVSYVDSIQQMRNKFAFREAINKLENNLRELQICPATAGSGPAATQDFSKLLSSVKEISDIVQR

Row | SMILES | IC50 (LRRK2 G2019S) [µM] | IC50 (LRRK2 (WT)) [µM] | IC50 [1] [µM]
1 | Cc1ccc(Cl)cc1-c1ccc2nc(NC(=O)[C@@H]3C[C@@H]3F)cn2c1 [Example 26, (1S,2S)—N-(6-(5-chloro-2-methylphenyl)imidazo[1,2-a]pyridin-2-yl)-2-fluorocyclopropane-1-carboxamide] | 0.101 to 1 | 0.101 to 1 | < 0.01
2 | O=C(Nc1cn2cc(-c3cnc4[nH]ccc4c3)ccc2n1)[C@@H]1C[C@@H]1F [Example 27, (1S,2S)—N-(6-(1H-pyrrolo[2,3-b]pyridin-5-yl)imidazo[1,2-a]pyridin-2-yl)-2-fluorocyclopropane-1-carboxamide] | 0.01 to 0.1 | 0.101 to 1 | < 0.01
3 | Cc1ccc(-c2cc[nH]n2)cc1-c1ccc2nc(NC(=O)[C@@H]3C[C@@H]3F)cn2c1 [Example 28, (1S,2S)-2-fluoro-N-(6-(2-methyl-5-(1H-pyrazol-3-yl)phenyl)imidazo[1,2-a]pyridin-2-yl)cyclopropane-1-carboxamide] | 0.101 to 1 | 0.101 to 1 | < 0.01
4 | Cc1cc(Cl)ccc1-c1ccc2nc(NC(=O)[C@@H]3C[C@@H]3F)cn2c1 [Example 29, (1S,2S)—N-(6-(4-chloro-2-methylphenyl)imidazo[1,2-a]pyridin-2-yl)-2-fluorocyclopropane-1-carboxamide] | 0.101 to 1 | 0.101 to 1 | < 0.01
5 | Cc1c(Cl)cccc1-c1ccc2nc(NC(=O)[C@@H]3C[C@@H]3F)cn2c1 [Example 30, (1S,2S)—N-(6-(3-chloro-2-methylphenyl)imidazo[1,2-a]pyridin-2-yl)-2-fluorocyclopropane-1-carboxamide] | 0.101 to 1 | 0.101 to 1 | < 0.01
6 | O=C(Nc1cn2cc(-c3cnccc3C(F)(F)F)ccc2n1)[C@@H]1C[C@@H]1F [Example 31, (1S,2S)-2-fluoro-N-(6-(4-(trifluoromethyl)pyridin-3-yl)imidazo[1,2-a]pyridin-2-yl)cyclopropane-1-carboxamide] | 0.101 to 1 | > 1 | 0.101 to 1
7 | Cc1ccc(-c2ccc3nc(NC(=O)[C@@H]4C[C@@H]4F)cn3c2)c(C)c1 [Example 32, (1S,2S)—N-(6-(2,4-dimethylphenyl)imidazo[1,2-a]pyridin-2-yl)-2-fluorocyclopropane-1-carboxamide] | 0.101 to 1 | 0.101 to 1 | < 0.01
8 | Cc1c(F)cccc1-c1ccc2nc(NC(=O)[C@@H]3C[C@@H]3F)c(F)n2c1 [Example 33, (1S,2S)-2-fluoro-N-(3-fluoro-6-(3-fluoro-2-methylphenyl)imidazo[1,2-a]pyridin-2-yl)cyclopropane-1-carboxamide] | 0.101 to 1 | 0.101 to 1 | < 0.01
9 | Cc1ccc(C)c(-c2ccc3nc(NC(=O)[C@@H]4C[C@@H]4F)cn3c2)c1 [Example 34, (1S,2S)—N-(6-(2,5-dimethylphenyl)imidazo[1,2-a]pyridin-2-yl)-2-fluorocyclopropane-1-carboxamide] | 0.101 to 1 | 0.101 to 1 | < 0.01
10 | O=C1Cc2ccc(-c3ccc4nc(NC(=O)[C@@H]5C[C@@H]5F)cn4c3)cc2N1 [Example 35, (1S,2S)-2-fluoro-N-(6-(2-oxoindolin-6-yl)imidazo[1,2-a]pyridin-2-yl)cyclopropane-1-carboxamide] | > 1 | > 1 | 0.01 to 0.1
11 | N#Cc1ccncc1-c1ccc2nc(NC(=O)[C@@H]3C[C@@H]3F)cn2c1 [Example 36, (1S,2S)—N-(6-(4-cyanopyridin-3-yl)imidazo[1,2-a]pyridin-2-yl)-2-fluorocyclopropane-1-carboxamide] | 0.101 to 1 | > 1 | 0.101 to 1
12 | Cc1c(F)ccc(-c2ccc3nc(NC(=O)[C@@H]4C[C@@H]4F)cn3c2)c1C [Example 37, (1S,2S)-2-fluoro-N-(6-(4-fluoro-2,3-dimethylphenyl)imidazo[1,2-a]pyridin-2-yl)cyclopropane-1-carboxamide] | 0.101 to 1 | 0.101 to 1 | < 0.01
13 | Cc1cc(F)cc(C)c1-c1ccc2nc(NC(=O)[C@@H]3C[C@@H]3F)cn2c1 [Example 38, (1S,2S)-2-fluoro-N-(6-(4-fluoro-2,6-dimethylphenyl)imidazo[1,2-a]pyridin-2-yl)cyclopropane-1-carboxamide] | 0.101 to 1 | 0.101 to 1 | < 0.01
14 | Cc1cc(F)ccc1-c1ccc2nc(NC(=O)[C@@H]3C[C@@H]3F)cn2c1 [Example 39, (1S,2S)-2-fluoro-N-(6-(4-fluoro-2-methylphenyl)imidazo[1,2-a]pyridin-2-yl)cyclopropane-1-carboxamide] | 0.01 to 0.1 | 0.101 to 1 | < 0.01
15 | Cc1ccc(-c2cc[nH]c2)cc1-c1ccc2nc(NC(=O)[C@@H]3C[C@@H]3F)cn2c1 [Example 40, (1S,2S)-2-fluoro-N-(6-(2-methyl-5-(1H-pyrrol-3-yl)phenyl)imidazo[1,2-a]pyridin-2-yl)cyclopropane-1-carboxamide] | 0.01 to 0.1 | 0.101 to 1 | < 0.01
16 | Cc1ccsc1-c1ccc2nc(NC(=O)[C@@H]3C[C@@H]3F)cn2c1 [Example 41, (1S,2S)-2-fluoro-N-(6-(3-methylthiophen-2-yl)imidazo[1,2-a]pyridin-2-yl)cyclopropane-1-carboxamide] | 0.01 to 0.1 | 0.01 to 0.1 | < 0.01
17 | Cc1cc(F)c(O)cc1-c1ccc2nc(NC(=O)[C@@H]3C[C@@H]3F)cn2c1 [Example 43, (1S,2S)-2-fluoro-N-(6-(4-fluoro-5-hydroxy-2-methylphenyl)imidazo[1,2-a]pyridin-2-yl)cyclopropane-1-carboxamide] | 0.01 to 0.1 | 0.101 to 1 | < 0.01
18 | Cc1c(-c2ccc3nc(NC(=O)[C@@H]4C[C@@H]4F)cn3c2)ccc(F)c1F [Example 44, (1S,2S)—N-(6-(3,4-difluoro-2-methylphenyl)imidazo[1,2-a]pyridin-2-yl)-2-fluorocyclopropane-1-carboxamide] | 0.01 to 0.1 | 0.101 to 1 | < 0.01
19 | Cc1c(F)ccc(F)c1-c1ccc2nc(NC(=O)[C@@H]3C[C@@H]3F)cn2c1 [Example 45, (1S,2S)—N-(6-(3,6-difluoro-2-methylphenyl)imidazo[1,2-a]pyridin-2-yl)-2-fluorocyclopropane-1-carboxamide] | 0.01 to 0.1 | 0.101 to 1 | < 0.01
20 | Cc1c(-c2ccc3nc(NC(=O)[C@@H]4C[C@@H]4F)cn3c2)ccc(Cl)c1F [Example 46, (1S,2S)—N-(6-(4-chloro-3-fluoro-2-methylphenyl)imidazo[1,2-a]pyridin-2-yl)-2-fluorocyclopropane-1-carboxamide] | 0.101 to 1 | 0.101 to 1 | < 0.01
21 | Cc1ccnc(F)c1-c1ccc2nc(NC(=O)[C@@H]3C[C@@H]3F)cn2c1 [Example 47, (1S,2S)-2-fluoro-N-(6-(2-fluoro-4-methylpyridin-3-yl)imidazo[1,2-a]pyridin-2-yl)cyclopropane-1-carboxamide] | 0.01 to 0.1 | 0.101 to 1 | 0.01 to 0.1
22 | Cc1cc(N)ncc1-c1ccc2nc(NC(=O)[C@@H]3C[C@@H]3F)cn2c1 [Example 49, (1S,2S)—N-(6-(6-amino-4-methylpyridin-3-yl)imidazo[1,2-a]pyridin-2-yl)-2-fluorocyclopropane-1-carboxamide] | > 1 | > 1 | < 0.01
